Results published in patent US10759816B2, “Heterocyclic compounds as RSV inhibitors” (Enanta Pharmaceuticals, Inc., priority 2016, dated 2020).

Test system: genotype A, "Long" strain RSV
Assay: RSV-A in vitro cytoprotection assay in HEp-2 cells (ATPlite readout of cell viability)
Assay type: cell-based, Human respiratory syncytial virus
Settings: human respiratory syncytial virus, HEp-2, HEp-2 cells, genotype A “Long” strain RSV, cytoprotection; read-out: Human RSV-A (“Long” strain) EC50
How it was run: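 HEp-2 cells (8,000/well) given 2-fold compound dilutions in duplicate, then infected with RSV-A Long strain stock; viability read by ATPlite luminescence after 4 days. EC50 derived from cytoprotection; cytotoxicity measured on parallel uninfected plate.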

| SMILES | EC50 |
| --- | --- |
| Cc1cccc(F)c1NC(=O)c1cc2c(s1)-c1ccc(F)cc1N(C(=O)c1cccc(-c3c[nH]c4ncc(F)cc34)n1)CC2 [Example 169] | < 400 nM |
| Cc1cccc(F)c1NC(=O)c1cc2c(s1)-c1ccc(F)cc1N(C(=O)c1cccc(-c3cn[nH]c3C3CC3)n1)CC2 [Example 170] | < 400 nM |
| Cc1cccc(F)c1NC(=O)c1cc2c(s1)-c1c(F)cccc1N(C(=O)c1cccc(-c3cn[nH]c3C3CC3)n1)CC2 [Example 171] | < 400 nM |
| Cc1cccc(F)c1NC(=O)c1cc2c(s1)-c1ccc(F)cc1N(C(=O)c1cccc(-c3c[nH]c4ncccc34)n1)CC2 [Example 173] | < 400 nM |
| CCn1nccc1-c1cccc(C(=O)N2CCc3cc(C(=O)Nc4c(C)cccc4F)sc3-c3ccc(F)cc32)n1 [Example 174] | < 400 nM |
| O=C(NC1CCC(F)(F)CC1)c1cc2c(s1)-c1ccccc1N(C(=O)c1cccc(-c3c[nH]nc3C3CC3)n1)CC2 [Example 175] | < 400 nM |
| O=C(N[C@@H]1CCOC1)c1cc2c(s1)-c1ccccc1N(C(=O)c1cccc(-c3c[nH]nc3C3CC3)n1)CC2 [Example 176] | < 400 nM |
| O=C(N[C@H]1CCOC1)c1cc2c(s1)-c1ccccc1N(C(=O)c1cccc(-c3c[nH]nc3C3CC3)n1)CC2 [Example 177] | < 400 nM |
| O=C(NC1CCC1)c1cc2c(s1)-c1ccccc1N(C(=O)c1cccc(-c3c[nH]nc3C3CC3)n1)CC2 [Example 178] | < 400 nM |
| O=C(NC1CC(F)(F)C1)c1cc2c(s1)-c1ccccc1N(C(=O)c1cccc(-c3c[nH]nc3C3CC3)n1)CC2 [Example 179] | < 400 nM |
| O=C(NC1CCOCC1)c1cc2c(s1)-c1ccccc1N(C(=O)c1cccc(-c3c[nH]nc3C3CC3)n1)CC2 [Example 180] | < 400 nM |
| O=C(NC1CS(=O)(=O)C1)c1cc2c(s1)-c1ccccc1N(C(=O)c1cccc(-c3c[nH]nc3C3CC3)n1)CC2 [Example 181] | > 800 nM |
| O=C(NC1CNC1)c1cc2c(s1)-c1ccccc1N(C(=O)c1cccc(-c3c[nH]nc3C3CC3)n1)CC2 [Example 182] | > 800 nM |
| CN1CC(NC(=O)c2cc3c(s2)-c2ccccc2N(C(=O)c2cccc(-c4c[nH]nc4C4CC4)n2)CC3)C1 [Example 183] | > 800 nM |
| CS(=O)(=O)N1CC(NC(=O)c2cc3c(s2)-c2ccccc2N(C(=O)c2cccc(-c4c[nH]nc4C4CC4)n2)CC3)C1 [Example 184] | > 800 nM |
| CC(=O)N1CC(NC(=O)c2cc3c(s2)-c2ccccc2N(C(=O)c2cccc(-c4c[nH]nc4C4CC4)n2)CC3)C1 [Example 185] | > 800 nM |
| O=C(NC1CC1)c1cc2c(s1)-c1ccccc1N(C(=O)c1ccc3ccc(-c4ccncc4)cc3n1)CC2 [Example 186] | > 800 nM |
| O=C(NC1CC1)c1cc2c(s1)-c1ccccc1N(C(=O)c1ccc3ccc(-c4ccncc4)nc3c1)CC2 [Example 187] | > 800 nM |
| Cc1cccc(F)c1NC(=O)c1cc2c(s1)-c1ccccc1N(C(=O)c1cccc(-c3ccc4ncccc4c3)n1)CC2 [Example 188] | < 400 nM |
| Cc1cccc(F)c1NC(=O)c1cc2c(s1)-c1ccccc1N(C(=O)c1cccc(-c3ccc4nccc(Cl)c4c3)n1)CC2 [Example 189] | > 800 nM |
| Cc1cccc(F)c1NC(=O)c1cc2c(s1)-c1ccccc1N(C(=O)c1cccc(-c3ccc4[nH]c(=O)ccc4c3)n1)CC2 [Example 190] | < 400 nM |

| SMILES | EC50 |
| --- | --- |
| Cc1cccc(F)c1NC(=O)c1cc2c(s1)-c1ccccc1N(C(=O)c1cccc(-c3ccc4ccc(=O)[nH]c4c3)n1)CC2 [Example 191] | > 800 nM |
| Cc1cccc(F)c1NC(=O)c1cc2c(s1)-c1ccccc1N(C(=O)c1cccc(-c3ccc4c(c3)COC4)n1)CC2 [Example 192] | 400 to 800 nM |
| Cc1cccc(F)c1NC(=O)c1cc2c(s1)-c1ccccc1N(C(=O)c1cccc(-c3ccc4occc4c3)n1)CC2 [Example 193] | > 800 nM |
| Cc1cccc(F)c1NC(=O)c1cc2c(s1)-c1ccccc1N(C(=O)c1cccc(-c3ccc4c(c3)CNC4=O)n1)CC2 [Example 194] | 400 to 800 nM |
| Cc1cccc(F)c1NC(=O)c1cc2c(s1)-c1ccccc1N(C(=O)c1cccc(-c3ccc4c(c3)CN(C)C4=O)n1)CC2 [Example 195] | < 400 nM |
| Cc1cccc(F)c1NC(=O)c1cc2c(s1)-c1ccccc1N(C(=O)c1cccc(-c3c[nH]nc3C3CC3)n1)CC2 [Example 196] | < 400 nM |
| Cc1cccc(F)c1NC(=O)c1cc2c(s1)-c1ccccc1N(C(=O)c1cccc(-c3cn(C)nc3C3CC3)n1)CC2 [Example 197] | < 400 nM |
| Cc1cccc(F)c1NC(=O)c1cc2c(s1)-c1ccccc1N(C(=O)c1cccc(-c3cnc(C)n3C3CC3)n1)CC2 [Example 198] | < 400 nM |
| Cc1cccc(F)c1NC(=O)c1cc2c(s1)-c1ccccc1N(C(=O)c1cccc(-c3cncn3C3CCC3)n1)CC2 [Example 199] | < 400 nM |
| Cc1cccc(F)c1NC(=O)c1cc2c(s1)-c1ccccc1N(C(=O)c1cccc(-c3cnc(C4CC4)n3C3CC3)n1)CC2 [Example 200] | < 400 nM |
| Cc1cccc(F)c1NC(=O)c1cc2c(s1)-c1ccccc1N(C(=O)c1cccc(-c3cncn3C3(C)CC3)n1)CC2 [Example 201] | > 800 nM |
| Cc1cccc(F)c1NC(=O)c1cc2c(s1)-c1ccccc1N(C(=O)c1cccc(-c3cnc(C(F)(F)F)n3C3CC3)n1)CC2 [Example 202] | < 400 nM |
| Cc1cccc(F)c1NC(=O)c1cc2c(s1)-c1ccccc1N(C(=O)c1cccc(-c3cncn3-c3ccccc3)n1)CC2 [Example 203] | > 800 nM |
| COc1ccc(-n2cncc2-c2cccc(C(=O)N3CCc4cc(C(=O)Nc5c(C)cccc5F)sc4-c4ccccc43)n2)cc1 [Example 204] | > 800 nM |
| Cc1cccc(F)c1NC(=O)c1cc2c(s1)-c1ccccc1N(C(=O)c1cccc(-c3cncn3-c3ccccc3F)n1)CC2 [Example 205] | > 800 nM |
| Cc1cccc(F)c1NC(=O)c1cc2c(s1)-c1ccccc1N(C(=O)c1cccc(-c3c[nH]c4ccccc34)n1)CC2 [Example 207] | < 400 nM |
| Cc1cccc(F)c1NC(=O)c1cc2c(s1)-c1ccccc1N(C(=O)c1cccc(-c3cn(C)c4ccccc34)n1)CC2 [Example 208] | > 800 nM |
| Cc1cccc(F)c1NC(=O)c1cc2c(s1)-c1ccccc1N(C(=O)c1cccc(-c3c(C)n[nH]c3C)n1)CC2 [Example 209] | < 400 nM |
| Cc1cccc(F)c1NC(=O)c1cc2c(s1)-c1ccccc1N(C(=O)c1cccc(-c3c[nH]nc3C(F)(F)F)n1)CC2 [Example 210] | < 400 nM |
| Cc1cccc(F)c1NC(=O)c1cc2c(s1)-c1ccccc1N(C(=O)c1cccc(-c3c[nH]nc3N3CCOCC3)n1)CC2 [Example 211] | > 800 nM |
| Cc1cccc(F)c1NC(=O)c1cc2c(s1)-c1ccccc1N(C(=O)c1cccc(-c3cn[nH]c3-c3ccccc3)n1)CC2 [Example 212] | < 400 nM |

| SMILES | EC50 |
| --- | --- |
| Cc1cccc(F)c1NC(=O)c1cc2c(s1)-c1ccccc1N(C(=O)c1cccc(-c3cn[nH]c3)n1)CC2 [Example 213] | < 400 nM |
| COC(=O)n1cc(-c2cccc(C(=O)N3CCc4cc(C(=O)Nc5c(C)cccc5F)sc4-c4ccccc43)n2)c(C2CC2)n1 [Example 214] | < 400 nM |
| Cc1cccc(F)c1NC(=O)c1cc2c(s1)-c1ccccc1N(C(=O)c1cccc(-c3cn(S(C)(=O)=O)nc3C3CC3)n1)CC2 [Example 215] | < 400 nM |
| Cc1cccc(F)c1NC(=O)c1cc2c(s1)-c1ccccc1N(C(=O)c1cccc(-c3cnn(S(C)(=O)=O)c3C3CC3)n1)CC2 [Example 216] | < 400 nM |
| CNC(=O)n1cc(-c2cccc(C(=O)N3CCc4cc(C(=O)Nc5c(C)cccc5F)sc4-c4ccccc43)n2)c(C2CC2)n1 [Example 217] | < 400 nM |
| CNC(=O)n1ncc(-c2cccc(C(=O)N3CCc4cc(C(=O)Nc5c(C)cccc5F)sc4-c4ccccc43)n2)c1C1CC1 [Example 218] | < 400 nM |
| Cc1cccc(F)c1NC(=O)c1cc2c(s1)-c1ccccc1N(C(=O)c1cccc(-c3cn(C(=O)N(C)C)nc3C3CC3)n1)CC2 [Example 219] | 400 to 800 nM |
| CCS(=O)(=O)n1cc(-c2cccc(C(=O)N3CCc4cc(C(=O)Nc5c(C)cccc5F)sc4-c4ccccc43)n2)c(C2CC2)n1 [Example 220] | 400 to 800 nM |
| Cc1cccc(F)c1NC(=O)c1cc2c(s1)-c1ccccc1N(C(=O)c1cccc(-c3cn(S(=O)(=O)C4CC4)nc3C3CC3)n1)CC2 [Example 221] | < 400 nM |
| Cc1cccc(F)c1NC(=O)c1cc2c(s1)-c1ccccc1N(C(=O)c1cccc(-c3cnn(S(=O)(=O)C4CC4)c3C3CC3)n1)CC2 [Example 222] | 400 to 800 nM |
| Cc1cccc(F)c1NC(=O)c1cc2c(s1)-c1ccccc1N(C(=O)c1cccc(-c3cn(C(=O)OC(C)C)nc3C3CC3)n1)CC2 [Example 223] | < 400 nM |
| CCOC(=O)n1cc(-c2cccc(C(=O)N3CCc4cc(C(=O)Nc5c(C)cccc5F)sc4-c4ccccc43)n2)c(C2CC2)n1 [Example 224] | < 400 nM |
| Cc1cccc(F)c1NC(=O)c1cc2c(s1)-c1ccccc1N(C(=O)c1cccc(-c3cn(C(=O)C(C)C)nc3C3CC3)n1)CC2 [Example 225] | < 400 nM |
| COCCn1cc(-c2cccc(C(=O)N3CCc4cc(C(=O)Nc5c(C)cccc5F)sc4-c4ccccc43)n2)c(C2CC2)n1 [Example 226] | > 800 nM |
| Cc1cccc(F)c1NC(=O)c1cc2c(s1)-c1ccccc1N(C(=O)c1cccc(-c3cn(CCS(C)(=O)=O)nc3C3CC3)n1)CC2 [Example 227] | > 800 nM |
| Cc1cccc(F)c1NC(=O)c1cc2c(s1)-c1ccccc1N(C(=O)c1cccc(-c3cn(CCN(C)C)nc3C3CC3)n1)CC2 [Example 228] | > 800 nM |
| Cc1cccc(F)c1NC(=O)c1cc2c(s1)-c1ccccc1N(C(=O)c1cccc(-c3cnn(CCN(C)C)c3C3CC3)n1)CC2 [Example 229] | > 800 nM |
| Cc1cccc(F)c1NC(=O)c1cc2c(s1)-c1ccccc1N(C(=O)c1cccc(-c3cn(CC(N)=O)nc3C3CC3)n1)CC2 [Example 230] | > 800 nM |
| Cc1cccc(F)c1NC(=O)c1cc2c(s1)-c1ccccc1N(C(=O)c1cccc(-c3cn(CS(C)(=O)=O)nc3C3CC3)n1)CC2 [Example 231] | > 800 nM |
| Cc1cccc(F)c1NC(=O)c1cc2c(s1)-c1ccccc1N(C(=O)c1cccc(-c3cnn(Cc4ccccc4)c3-c3ccccn3)n1)CC2 [Example 232] | > 800 nM |
